{
  "source": "patent US8217049B2",
  "about": "“Use of type V phosphodiesterase inhibitors in the treatment of exercise induced pulmonary hemorrhage in the equine” (ANOxA Corp., priority 2006, dated 2012)",
  "key": {"[1]": {"test_system": "exercise induced pulmonary hemorrhage (EIPH); blood in the trachea", "experiment": "Endoscopic EIPH scoring (Pascoe et al. 1985) after maximum exercise, placebo-controlled crossover", "assay_type": "in vivo", "parameters": "key: 0: Zero indicates an absence of EIPH; 1 to 4 indicated increasing amounts of blood observed endoscopically in the trachea", "details": "10 μg/kg of E4021 prior to maximum exercise (>1,000 meters); videoendoscopy about 60 to 90 minutes after exercise; one value per individual horse (Horse 1-8) with previous EIPH; sesquihydrate", "description": "(§1) Eight horses with previous evidence of EIPH were enrolled in the study. The candidate horses served as their own control and a predetermined rest period (no maximum exercise events) of one week was adhered to prior to initiation of the protocol. On initiation of the trial the subject horse received, prior to maximum exercise, either a dose of 10 μg/kg of weight of E4021 or a placebo. The eight horses were exercised in training/mock racing conditions at maximum intensity for greater than 1,000 meters followed by endoscopic exam/scoring about 60 to 90 minutes after the exercise event. Following exercise, the horses were examined with videoendoscopy for evidence of blood in the trachea about 60 minutes to 90 minutes after maximum exercise. The endoscope was passed to the level of the bifurcation of the trachea (carina) with images recorded on videotape.\nAn objective scoring system (Pascoe et al. 1985) was used to indicate the presence or absence of EIPH, as well as its severity, if present. […] Scoring was done by the veterinarian conducting the examination, then later by another individual using the recorded examination. […]\nThe E4021 was administered from vials containing 50 mg of E4021/30 ml. […] The Pl score was after placebo intervention and the post Tx Score was recorded after administration of E4021. […]"}, "[2]": {"experiment": "Untoward effects and systemic hemodynamics in the treated horses", "assay_type": "in vivo, horse", "details": "eight horses, 10 μg/kg of E4021 prior to maximum exercise", "description": "as §1"}},
  "note": "Values joined by “and” are separate entries in the source; they are usually repeats but may differ in a detail not shown here. Equal values may be shown once.",
  "data": [
    {"smiles": "O.O.O.O=C([O-])C1CCN(c2nc(NCc3ccc4c(c3)OCO4)c3cc(Cl)ccc3n2)CC1.O=C([O-])C1CCN(c2nc(NCc3ccc4c(c3)OCO4)c3cc(Cl)ccc3n2)CC1.[Na+].[Na+]", "note": "[E4021]", "values": [
      {"measurement": "Post Tx (EIPH endoscopic score recorded after administration of E4021)", "setting": "[1]", "result": "0 (3×) and 3 and 1 and 2"},
      {"measurement": "Untoward effects", "setting": "[2]", "result": "did not experience any untoward effects"},
      {"measurement": "Systemic hemodynamics (e.g. cardiac output, blood pressure)", "setting": "[2]; versus controls", "result": "remained unchanged from controls"}
    ]}
  ]
}
